Like-named read-outs stand apart in the source and are kept apart here.
Columns and labels:
[1] = system: CHIKV-nLuc (181/25 strain); experiment: microbe, parasite or virus in culture; assay type: cell-based, Chikungunya virus; details: Chikungunya virus, 384-well format, read 20 h after infection, read-out: Normalized percent inhibition in primary screen
[2] = system: SINV-GLuc; experiment: microbe, parasite or virus in culture; assay type: cell-based; details: Sindbis virus, Vero C1008; VeroE6 cells; read-out: Antiviral potency (EC50 [µM]) SINV
[3] = system: HPIV3-nLuc; experiment: microbe, parasite or virus in culture; assay type: cell-based; details: Human respirovirus 3, Vero C1008; VeroE6 cells; read-out: Antiviral potency (EC50 [µM]) HPIV3
[4] = system: SARS-CoV-2-nLuc; experiment: microbe, parasite or virus in culture; assay type: cell-based; details: Severe acute respiratory syndrome coronavirus 2; VeroE6-TMPRSS2 cells; read-out: Antiviral potency (EC50 [µM]) SARS-CoV-2
[5] = system: RSV A2-L19F; experiment: microbe, parasite or virus in culture; assay type: cell-based; details: human respiratory syncytial virus; Hep-2 cells; read-out: Antiviral potency (EC50 [µM]) RSV
[6] = system: VSV-nLuc; experiment: microbe, parasite or virus in culture; assay type: cell-based; details: Vesicular stomatitis virus, Vero C1008, read-out: Antiviral potency (EC50 [µM]) VSV
[7] = in vitro; details: African green monkey
[8] = in vitro; details: human
[9] = system: VEEV-TC83-nLuc; experiment: microbe, parasite or virus in culture; assay type: cell-based; details: Venezuelan equine encephalitis virus, Vero C1008, read-out: Antiviral potency (EC50 [µM]) VEEV
[10] = in vitro; details: human; remark: listed apart in the source
[11] = system: CHIKV replicon; experiment: microbe, parasite or virus in culture; details: Chikungunya virus, U2OS, read-out: Antiviral potency (EC50 [µM]) CHKV replicon
[12] = system: CHIKV-nLuc; experiment: microbe, parasite or virus in culture; assay type: cell-based, Chikungunya virus; details: Chikungunya virus, U2OS; MOI 0.1 FFU/cell, 24 hpi, in-house synthesized compound; read-out: EC50 CHIKV-nLuc, U-2 OS
[13] = system: CHIKV-nLuc; experiment: microbe, parasite or virus in culture; assay type: cell-based, Chikungunya virus
[14] = Cytotoxicity assay (PrestoBlue, 24 h) in U-2 OS cells; assay type: cell-based, Human; details: human, U-2 OS cells
[15] = Cytotoxicity assay (PrestoBlue, 24 h) in NHDF cells; assay type: cell-based, Human; details: human, NHDF cells
Experimental: NHDF cells were seeded at 10,000 cells per well in 24-well plates and cultured for 24 h. Cells were then treated with threefold serial dilutions of compounds starting at 500 µM and incubated for 24 h. DMSO was included as a negative control for normalization. Following treatment, cells were incubated with PrestoBlue reagent (ThermoFisher Scientific) for 1 h at 37°C, and fluorescence was measured using a PerkinElmer Victor X5 multilabel plate reader. The CC50 values were determined by normalized non-linear regression with a variable slope model in Prism (GraphPad).

[16] = system: CHIKV 181/25; experiment: Virus yield dose-response in U-2 OS cells, CHIKV; assay type: cell-based, Chikungunya virus; details: Chikungunya virus, U2OS
[17] = system: ONNV; experiment: organism not typed; assay type: cell-based, o'nyong-nyong virus; details: U2OS, read-out: EC50 virus production, ONNV
[18] = system: RRV; experiment: microbe, parasite or virus in culture; assay type: cell-based, Ross River virus; details: Ross River virus, U2OS, read-out: EC50 virus production, RRV
[19] = system: SINV; experiment: microbe, parasite or virus in culture; assay type: cell-based, Sindbis virus; details: Sindbis virus, U2OS, read-out: EC50 virus production, SINV
[20] = system: MAYV; experiment: microbe, parasite or virus in culture; assay type: cell-based, Mayaro virus; details: Mayaro virus, U2OS, read-out: EC50 virus production, MAYV
[21] = system: SFV; experiment: microbe, parasite or virus in culture; assay type: cell-based, Semliki Forest virus; details: Semliki Forest virus, U2OS, read-out: EC50 virus production, SFV
[22] = biological target: T1, CHIKV trans-replicase (P1234) (Chikungunya virus, UniProt Q8JUX6); experiment: Trans-replicase assay, CHIKV; assay type: cell-based; details: 100 µM, U-2 OS, 20 h
T1 construct: expression of the P1234 polyprotein drives replication of a reporter RNA template; expressed in transfected cells; host or cells: U-2 OS
Experimental: (§1) U-2 OS cells were seeded at 75,000 cells per well in 24-well plates and cultured for 24 h. Cells were then co-transfected with 250 ng of plasmid encoding template RNA and 250 ng of plasmid encoding P1234 WT ([72], [73]), using Lipofectamine LTX with PLUS reagent (ThermoFisher Scientific) following the manufacturer’s instructions. After 4 h of post-transfection, medium containing 100 µM of compounds or DMSO was added to the cells. Cells were then incubated for 20 h, lysed, and GLuc activity was quantified using the Dual-Luciferase Reporter Assay System (Promega). Luciferase activities were normalized to those of the DMSO-treated controls.

[23] = biological target: T2, ONNV trans-replicase (P1234) (O'nyong-nyong virus, UniProt P13886); experiment: Trans-replicase assay, ONNV; assay type: cell-based; details: 100 µM, U-2 OS, 20 h
T2 construct: expression of the P1234 polyprotein drives replication of a reporter RNA template; expressed in transfected cells; host or cells: U-2 OS
Experimental: as §1

[24] = biological target: T3, RRV trans-replicase (P1234) (Ross river virus, UniProt P13887); experiment: Trans-replicase assay, RRV; assay type: cell-based; details: 100 µM, U-2 OS, 20 h
T3 construct: expression of the P1234 polyprotein drives replication of a reporter RNA template; expressed in transfected cells; host or cells: U-2 OS
Experimental: as §1

[25] = biological target: T4, MAYV trans-replicase (P1234) (Mayaro virus, UniProt Q8QZ73); experiment: Trans-replicase assay, MAYV; assay type: cell-based; details: 100 µM, U-2 OS, 20 h
T4 construct: expression of the P1234 polyprotein drives replication of a reporter RNA template; expressed in transfected cells; host or cells: U-2 OS
T4 sequence (Q8QZ73 whole entry): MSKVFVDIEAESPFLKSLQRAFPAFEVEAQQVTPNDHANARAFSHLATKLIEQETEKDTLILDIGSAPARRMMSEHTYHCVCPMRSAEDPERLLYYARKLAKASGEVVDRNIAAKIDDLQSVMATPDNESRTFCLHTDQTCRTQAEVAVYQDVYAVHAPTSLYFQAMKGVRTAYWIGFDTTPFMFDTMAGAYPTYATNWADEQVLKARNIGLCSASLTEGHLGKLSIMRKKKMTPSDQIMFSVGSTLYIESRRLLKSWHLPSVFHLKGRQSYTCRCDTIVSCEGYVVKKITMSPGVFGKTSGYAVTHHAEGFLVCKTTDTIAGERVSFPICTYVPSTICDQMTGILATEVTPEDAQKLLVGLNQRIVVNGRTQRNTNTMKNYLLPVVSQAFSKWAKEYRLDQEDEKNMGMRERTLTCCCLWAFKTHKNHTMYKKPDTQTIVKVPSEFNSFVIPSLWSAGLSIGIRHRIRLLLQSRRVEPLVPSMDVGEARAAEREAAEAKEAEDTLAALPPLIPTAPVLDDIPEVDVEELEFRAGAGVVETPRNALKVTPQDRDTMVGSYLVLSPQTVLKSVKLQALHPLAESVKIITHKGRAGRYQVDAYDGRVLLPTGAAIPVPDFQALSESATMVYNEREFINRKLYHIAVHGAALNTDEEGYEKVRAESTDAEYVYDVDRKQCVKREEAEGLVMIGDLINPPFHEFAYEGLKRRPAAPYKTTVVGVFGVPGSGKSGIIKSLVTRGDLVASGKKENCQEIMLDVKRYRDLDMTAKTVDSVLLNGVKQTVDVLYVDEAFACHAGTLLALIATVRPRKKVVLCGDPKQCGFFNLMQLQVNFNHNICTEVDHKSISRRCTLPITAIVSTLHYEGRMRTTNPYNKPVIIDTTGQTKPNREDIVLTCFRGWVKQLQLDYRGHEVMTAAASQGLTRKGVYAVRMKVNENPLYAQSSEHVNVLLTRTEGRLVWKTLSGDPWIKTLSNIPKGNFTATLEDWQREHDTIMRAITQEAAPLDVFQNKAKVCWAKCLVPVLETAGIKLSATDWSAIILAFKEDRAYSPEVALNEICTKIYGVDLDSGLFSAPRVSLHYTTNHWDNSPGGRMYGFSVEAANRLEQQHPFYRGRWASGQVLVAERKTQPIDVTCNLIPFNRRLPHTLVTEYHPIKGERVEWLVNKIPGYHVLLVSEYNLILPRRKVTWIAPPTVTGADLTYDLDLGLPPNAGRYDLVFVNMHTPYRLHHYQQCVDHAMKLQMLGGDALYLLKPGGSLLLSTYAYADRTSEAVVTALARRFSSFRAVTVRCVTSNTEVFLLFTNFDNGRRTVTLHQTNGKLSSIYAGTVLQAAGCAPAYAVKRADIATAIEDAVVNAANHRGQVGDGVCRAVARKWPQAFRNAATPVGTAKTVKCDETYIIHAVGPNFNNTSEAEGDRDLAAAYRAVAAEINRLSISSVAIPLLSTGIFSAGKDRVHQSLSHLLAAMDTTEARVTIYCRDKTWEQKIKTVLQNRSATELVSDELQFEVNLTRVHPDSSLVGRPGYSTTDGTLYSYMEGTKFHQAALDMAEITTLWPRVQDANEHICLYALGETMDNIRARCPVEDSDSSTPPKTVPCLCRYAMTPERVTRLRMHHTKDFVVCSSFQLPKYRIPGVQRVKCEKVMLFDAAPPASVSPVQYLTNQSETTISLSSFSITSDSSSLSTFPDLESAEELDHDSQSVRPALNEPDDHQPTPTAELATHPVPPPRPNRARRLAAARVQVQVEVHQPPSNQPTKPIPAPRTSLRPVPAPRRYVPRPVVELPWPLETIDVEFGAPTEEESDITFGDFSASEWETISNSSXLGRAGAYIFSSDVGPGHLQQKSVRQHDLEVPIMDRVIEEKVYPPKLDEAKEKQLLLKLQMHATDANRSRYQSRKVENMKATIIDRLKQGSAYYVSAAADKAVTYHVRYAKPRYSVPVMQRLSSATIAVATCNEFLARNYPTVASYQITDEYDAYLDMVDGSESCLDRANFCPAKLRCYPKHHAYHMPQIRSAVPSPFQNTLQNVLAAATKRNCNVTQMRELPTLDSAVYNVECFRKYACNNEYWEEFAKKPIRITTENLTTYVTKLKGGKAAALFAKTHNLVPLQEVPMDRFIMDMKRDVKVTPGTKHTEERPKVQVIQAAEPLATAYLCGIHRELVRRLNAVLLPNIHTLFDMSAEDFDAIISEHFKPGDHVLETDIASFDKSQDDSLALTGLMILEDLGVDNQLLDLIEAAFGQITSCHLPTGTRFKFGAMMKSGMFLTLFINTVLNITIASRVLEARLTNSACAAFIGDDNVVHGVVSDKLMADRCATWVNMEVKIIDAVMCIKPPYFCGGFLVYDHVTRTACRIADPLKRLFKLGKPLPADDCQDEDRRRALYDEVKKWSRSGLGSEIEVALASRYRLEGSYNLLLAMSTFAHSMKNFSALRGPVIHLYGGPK
T4 sequence (Q8QZ73 1-536 partner limits assumed): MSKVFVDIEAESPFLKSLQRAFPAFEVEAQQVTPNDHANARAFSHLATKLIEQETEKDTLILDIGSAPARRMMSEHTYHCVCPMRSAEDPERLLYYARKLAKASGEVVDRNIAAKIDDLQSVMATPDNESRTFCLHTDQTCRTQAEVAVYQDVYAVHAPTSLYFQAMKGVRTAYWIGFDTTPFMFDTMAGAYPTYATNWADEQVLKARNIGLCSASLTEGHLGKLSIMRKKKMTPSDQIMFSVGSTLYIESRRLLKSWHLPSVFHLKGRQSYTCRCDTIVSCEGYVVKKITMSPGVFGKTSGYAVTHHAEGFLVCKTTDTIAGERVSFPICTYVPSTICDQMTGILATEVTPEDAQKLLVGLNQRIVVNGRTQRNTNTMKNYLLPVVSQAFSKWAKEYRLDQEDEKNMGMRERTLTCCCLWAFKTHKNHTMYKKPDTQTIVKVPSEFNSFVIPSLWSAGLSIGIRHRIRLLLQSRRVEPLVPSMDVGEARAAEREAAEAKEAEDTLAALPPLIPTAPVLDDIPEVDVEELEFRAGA
T4 sequence (Q8QZ73 537-1334 partner limits assumed): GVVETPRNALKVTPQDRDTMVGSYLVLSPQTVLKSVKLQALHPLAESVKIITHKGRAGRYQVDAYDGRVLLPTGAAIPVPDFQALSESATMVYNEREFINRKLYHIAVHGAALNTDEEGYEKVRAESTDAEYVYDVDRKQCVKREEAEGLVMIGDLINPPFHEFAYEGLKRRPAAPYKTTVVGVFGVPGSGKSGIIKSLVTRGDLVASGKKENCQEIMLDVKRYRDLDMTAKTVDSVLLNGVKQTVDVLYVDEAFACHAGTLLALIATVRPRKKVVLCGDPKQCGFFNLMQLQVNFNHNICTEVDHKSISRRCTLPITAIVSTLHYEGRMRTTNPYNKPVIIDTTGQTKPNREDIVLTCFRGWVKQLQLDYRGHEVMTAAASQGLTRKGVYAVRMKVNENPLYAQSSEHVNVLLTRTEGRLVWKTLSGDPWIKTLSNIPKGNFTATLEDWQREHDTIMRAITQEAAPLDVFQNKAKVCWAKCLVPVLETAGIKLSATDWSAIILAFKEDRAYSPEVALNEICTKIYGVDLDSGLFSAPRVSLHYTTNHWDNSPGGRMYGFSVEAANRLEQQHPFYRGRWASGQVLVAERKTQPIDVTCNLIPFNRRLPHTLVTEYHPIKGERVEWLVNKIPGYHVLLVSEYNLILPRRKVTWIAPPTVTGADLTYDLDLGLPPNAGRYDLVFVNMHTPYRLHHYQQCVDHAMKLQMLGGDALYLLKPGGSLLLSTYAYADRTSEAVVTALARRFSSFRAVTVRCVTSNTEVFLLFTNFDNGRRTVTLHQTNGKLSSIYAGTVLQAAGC
Experimental: as §1

[26] = biological target: T5, SINV trans-replicase (P1234) (Sindbis virus, UniProt P03317); experiment: Trans-replicase assay, SINV; assay type: cell-based; details: 100 µM, U-2 OS, 20 h
T5 construct: expression of the P1234 polyprotein drives replication of a reporter RNA template; expressed in transfected cells; host or cells: U-2 OS
Experimental: as §1

[27] = biological target: T6, SFV trans-replicase (P1234) (Semliki forest virus, UniProt P08411); experiment: Trans-replicase assay, SFV; assay type: cell-based; details: 100 µM, U-2 OS, 20 h
T6 construct: expression of the P1234 polyprotein drives replication of a reporter RNA template; expressed in transfected cells; host or cells: U-2 OS
Experimental: as §1

[28] = biological target: T7, BFV trans-replicase (P1234) (Barmah forest virus, UniProt P87515); experiment: Trans-replicase assay, BFV; assay type: cell-based; details: 100 µM, U-2 OS, 20 h
T7 construct: expression of the P1234 polyprotein drives replication of a reporter RNA template; expressed in transfected cells; host or cells: U-2 OS
Experimental: as §1

[29] = biological target: EEEV trans-replicase (P1234) (Eastern equine encephalitis virus, UniProt Q306W6); assay type: cell-based
[30] = biological target: VEEV trans-replicase (P1234) (Venezuelan equine encephalitis virus, UniProt P36328); assay type: cell-based
[31] = system: CHIKV; experiment: Selection for viral resistance by serial passage in U-2 OS cells, whole-genome sequencing; assay type: cell-based, Chikungunya virus; details: passage 1, MOI 1 FFU/cell, 16 h
[32] = system: CHIKV-nLuc; assay type: cell-based, Chikungunya virus; details: 20 µM, U-2 OS, reporter read at 24 h

CC(C)(C)c1ccc(C(=O)On2c(-c3ccccc3F)nc3ccccc3c2=O)cc1 [GAP-1000864]
inhibition at 5 µM [1]: 91%
EC50 [2]: > 20 µM
EC50 [3]: > 20 µM
EC50 [4]: > 20 µM
EC50 [5]: > 10 µM
EC50 [6]: > 20 µM
CC50 [7]: > 20 µM
CC50 [8]: > 20 µM

CCN1CCc2nc3sc(C(=O)c4ccccc4)c(C)c3cc2C1 [GAP-1022776]
inhibition at 5 µM [1]: 85.7%
EC50 [2]: > 20 µM
EC50 [3]: > 20 µM
EC50 [4]: > 20 µM
EC50 [5]: > 10 µM
EC50 [6]: > 20 µM
CC50 [7]: 25.2 µM
CC50 [8]: 19.2 µM

O=C(CSc1c2c(nc3cc(Cl)ccc13)CCCC2)Nc1ccc2c(c1)OCCO2 [GAP-1022901]
inhibition at 5 µM [1]: 82.1%
EC50 [2]: > 20 µM
EC50 [3]: > 20 µM
EC50 [4]: > 20 µM
EC50 [5]: > 10 µM
EC50 [6]: > 20 µM
CC50 [7]: > 20 µM
CC50 [8]: > 20 µM

Cc1ccc(NC(=O)c2oc3ccccc3c2NC(=O)c2nc(S(C)(=O)=O)ncc2Cl)cc1 [GAP-1027276]
inhibition at 5 µM [1]: 98.2%
EC50 [2]: > 20 µM
EC50 [3]: > 20 µM
EC50 [4]: > 20 µM
EC50 [5]: > 10 µM
EC50 [6]: > 20 µM
CC50 [7]: > 20 µM
CC50 [8]: 20 µM

CCS(=O)(=O)c1ncc(Cl)c(C(=O)Nc2nnc(C(C)C)s2)n1 [GAP-1027282]
inhibition at 5 µM [1]: 97.2%
EC50 [2]: > 20 µM
EC50 [3]: > 20 µM
EC50 [4]: > 20 µM
EC50 [5]: > 10 µM
EC50 [6]: > 20 µM
CC50 [7]: > 20 µM
CC50 [8]: 16.7 µM

Cc1ccc2sc(N(CCCN(C)C)C(=O)c3nc4ccccc4s3)nc2c1C [GAP-1041908]
inhibition at 5 µM [1]: 94.7%
EC50 [9]: 18.8 µM
EC50 [2]: 18.9 µM
EC50 [3]: 41 µM
EC50 [4]: 28 µM
EC50 [6]: 32.7 µM
selectivity ratio [10]: < 10
CC50 [7]: 34.9 µM
CC50 [8]: 31.4 µM
EC50 [11]: 32.1 µM

CCNc1cc(C)nc(N2CCN(C(=O)c3cccc4ccccc34)CC2)n1 [GAP-1066658]
inhibition at 5 µM [1]: 95.4%
EC50 [9]: 75.8 µM
EC50 [2]: > 100 µM
EC50 [3]: ~100 µM
EC50 [4]: ~100 µM
EC50 [5]: > 100 µM
EC50 [6]: 60.9 µM
CC50 [7]: 88.5 µM
CC50 [8]: 61.5 µM
EC50 [11]: 0.61 µM

Cn1nc(CN(C(=O)c2ccc(F)cc2)c2ccccc2)c2c1CCN(S(=O)(=O)Cc1ccccc1F)C2 [GAP-1081237]
inhibition at 5 µM [1]: 80.2%
EC50 [9]: 10 µM
EC50 [2]: 65.7 µM
EC50 [3]: 64.9 µM
EC50 [4]: > 100 µM
EC50 [5]: > 10 µM
EC50 [6]: 65.2 µM
CC50 [7]: > 100 µM
CC50 [8]: > 100 µM
EC50 [11]: 12.4 µM

O=C(CN1C(=O)CNC1=O)NCc1n[nH]c2c1CCCCC2 [GAP-1173149, 2-(2,5-dioxoimidazolidin-1-yl)-N-(1,4,5,6,7,8-hexahydrocyclohepta[d]pyrazol-3-ylmethyl)acetamide]
inhibition at 5 µM [1]: 88.7%
EC50 [9]: 52.3 µM
EC50 [2]: > 100 µM
EC50 [3]: > 100 µM
EC50 [4]: > 100 µM
EC50 [5]: > 10 µM
EC50 [6]: > 100 µM
EC50 [12]: 13.6 ± 0.16 µM
EC50 ([13]; Chikungunya virus, NHDF, MOI 0.1 FFU/cell, 24 hpi, in-house synthesized compound): 11.6 µM
selectivity index (SI = CC50/EC50) ([13]; NHDF cells): > 43
CC50 at 24 h [14]: > 500 µM
CC50 at 24 h [15]: > 500 µM
EC50 ([16]; MOI 0.1, supernatant 24 hpi titered by FFA (Fig. 5), read-out: EC50 virus production, CHIKV): 10.2 ± 0.95 µM
EC50 ([16]; resistance study (Fig. 7), read-out: EC50 virus production, CHIKV WT): 9.15 ± 1.62 µM
EC50 [17]: 5.22 ± 1.11 µM
EC50 [18]: 10 ± 0.64 µM
EC50 [19]: > 100 µM
EC50 [20]: > 100 µM
EC50 [21]: > 100 µM
Effect on RNA replication (GLuc) in trans-replicase assay, CHIKV [22]: suppressed replication
Effect on RNA replication (GLuc) in trans-replicase assay, ONNV [23]: suppressed replication
Effect on RNA replication (GLuc) in trans-replicase assay, RRV [24]: suppressed replication
Effect on RNA replication (GLuc) in trans-replicase assay, MAYV [25]: no significant effect
Effect on RNA replication (GLuc) in trans-replicase assay, SINV [26]: no significant effect
Effect on RNA replication (GLuc) in trans-replicase assay, SFV [27]: no significant effect
Effect on RNA replication (GLuc) in trans-replicase assay, BFV [28]: effectively inhibited
Effect on RNA replication (GLuc) in trans-replicase assay, EEEV [29]: effectively inhibited
Effect on RNA replication (GLuc) in trans-replicase assay, VEEV [30]: did not show significant VEEV inhibition
Reduction of virus titers at P1 compared with DMSO-treated controls [31]: 1 log
Time-of-addition profile (stage of replication targeted) [32]: act on a stage after viral entry
CC50 [7]: > 100 µM
CC50 [8]: > 100 µM
EC50 [11]: 5.3 µM

CCNc1nc(C)cc(N2CCN(C(=O)c3cc(Cl)ccc3OC)CC2)n1 [GAP-1350926]
inhibition at 5 µM [1]: 82.1%

CCNc1nc(C)cc(N2CCN(C(=O)c3ccccc3Br)CC2)n1 [GAP-1354666]
inhibition at 5 µM [1]: 82.5%

CCNc1nc(C)cc(N2CCN(C(=O)c3ccccc3Cl)CC2)n1 [GAP-1358555]
inhibition at 5 µM [1]: 85.8%

CCNc1nc(C)cc(N2CCN(C(=O)c3ccc(F)cc3Cl)CC2)n1 [GAP-1358964]
inhibition at 5 µM [1]: 91.6%

— PMC13288994, “Identification and characterization of novel chikungunya virus polymerase inhibitors” (Journal of Virology, 2026)
